Assay results reported in patent publication US4084006A, “Method of using dialkylphenols an antiviral agents” (priority 1977, dated 1978).

What was measured:
[1] = system: San Carlos virus; assay: Dimethylphenols against San Carlos virus in tissue culture (human embryonic lung), CPE; type: cell-based, San Carlos virus (adenovirus); details: for CPE with TCID50 doses of San Carlos virus: human embryonic lung, 100 TCID50
[2] = system: Herpes simplex virus (HF strain); assay: Inhibition of cytopathic activity (CPE) of herpes virus in HEL tissue culture; type: cell-based; details: for CPE with 100 TCID50 doses of Herpes virus: HEL cells
Method: (§1) The anti-viral activity of 2,4-dimethylphenol was studied in the following manner. Tissue cultures derived from human embryonic lung (HEL) were grown and maintained as monolayers in 32 ounce prescription bottles using growth medium consisting of 85% synthetic mixture No. 199 plus 15% unfiltered fetal bovine serum (FBS) adjusted to pH 7.4. Tube cultures of HEL cells were prepared in similar fashion and used in assays for anti-viral activity. During chemotherapy tests, the maintenance medium consisted of synthetic mixture No. 199 with 7.5% FBS. The virus spectrum in tissue culture consisted of two DNA viruses, a San Carlos virus isolated by Davis [see Science 133, 2059, 1961] and later identified as an adenovirus, and the HF strain of herpes simplex virus. In addition, a RNA virus represented by measles was included in the examples.
(§2) In performing the initial assays, the tissue cultures were treated prophylactically and the virus was treated in vitro with decreasing 2,4-dimethylphenol concentrations ranging from […] (2 × 10^-6) to 2 attograms (ag) (2 × 10^-18) per ml. The procedure consisted of pretreating tube cultures of HEL cells for two to three days with growth medium containing varying concentrations of 2,4-dimethylphenol. After the prophylactic treatment, the test fluids were removed and replaced with fresh maintenance medium. At this time, 200 TCID50 doses of virus were mixed in vitro with the same decreasing concentrations of the distillate used to pretreat the cells, then the mixture was inoculated into replicate culture of HEL cells so that the final incolum consisted of 100 TCID50 doses of virus in tubes with 2,4-dimethylphenol at the same level used to prophylactically treat the cells.
(§3) The same number of infected control tubes were handled in the same way except that 2,4-dimethylphenol was omitted from all media. Culture tubes were rotated at 37° C. and examined daily for a period of 7 days for cytopathic activity (CPE). […] By the same token, the CPE of herpes virus was inhibited by both the 10^-12 and 10^-15 level, possibly indicating two active components. […]

[3] = system: chronic respiratory disease (CRD); assay: Treatment of chronic respiratory disease (CRD) in spontaneously hypertensive (SH) rats; type: in vivo, rat (SH); as to Dead animals: tested at 0.001 ppm; as to Ill animals: tested at 0.001 ppm; as to Total number of rats: tested at 0.001 ppm; as to Well animals: tested at 0.001 ppm; as to animals showing a trace of secretions around their necks: tested at 0.001 ppm; as to rats alive in the treated group: tested at 0.001 ppm
Method: Treatment of Chronic Respiratory Disease (CRD) in laboratory rats: chronic respiratory disease symptoms include coughing and wheezing accompanied by nasal secretions.
(§4) One-half of a colony of spontaneously hypertensive (SH) rats was treated with 2,4-dimethylphenol in their drinking water at a concentration of one part per billion. The other half of this colony was given only tap water, and both groups observed for 76 days. The second experiment was with a highly inbred strain (GM) of rats that were about to expire, because of chronic respiratory infection. […] Both groups, the SH rats and the GM rats, were not breeding because of their infections and were in seriously poor health.
They were only 42 SH rats left in the colony. They were divided into two groups of 21 rats each. Approximately one-half the sick rats were selected for each group. […] This was best observed as a brown secretion from the nose and wiped around the neck by the rat's front paws. The experimental group was treated continuously with one part per billion (1 PPB) of 2,4-dimethylphenol in their drinking fluid. Certain of these rats were so ill that they were near death when the experiment was started and they died in spite of treatment.

[4] = system: chronic respiratory disease (CRD); assay: Treatment of chronic respiratory disease in inbred GM rats; type: in vivo, rat (GM); as to Dead animals: tested at 0.001 ppm; as to Ill animals: tested at 0.001 ppm; as to Well animals: tested at 0.001 ppm; as to new born rats, all appeared healthy: tested at 0.001 ppm; as to total number of rats in colony: tested at 0.001 ppm
Method: as §4
The second experiment was run concurrently with Example 36, but this time the animals were the highly inbred GM strain. A number of these animals were ill with chronic respiratory disease and unable to breed. These rats were randomly divided into two groups of 26 each. The experimental group received 1 PPB of the 2,4-dimethylphenol in their drinking water and the control group received only tap water.

[5] = system: San Carlos virus; assay: Inhibition of cytopathic activity (CPE) of San Carlos virus in HEL tissue culture; type: cell-based, San Carlos virus (adenovirus); details: for CPE with 100 TCID50 doses of San Carlos virus: HEL cells
Method: as §1, §2, §3

[6] = day 14, 1 PPB in drinking water, SH rats
[7] = day 22, 1 PPB in drinking water, SH rats
[8] = day 29, 1 PPB in drinking water, SH rats
[9] = day 36, 1 PPB in drinking water, SH rats
[10] = day 43, 1 PPB in drinking water, SH rats
[11] = day 58, 1 PPB in drinking water, GM rats
[12] = day 66, 1 PPB in drinking water, GM rats
[13] = day 73, 1 PPB in drinking water, GM rats
[14] = day 80, 1 PPB in drinking water, GM rats
[15] = over 2.5 years, 1 PPB in drinking fluid, combined GM groups

Cc1ccc(O)c(C)c1 [2,4-dimethylphenol]
CPE with TCID50 doses of San Carlos virus ([1]; 10^-6 grams 2X): 3+ (75% of cells infected with selected virus)
CPE with TCID50 doses of San Carlos virus ([1]; 10^-7 grams 2X): 2+ (50% of cells infected with selected virus)
CPE with TCID50 doses of San Carlos virus ([1]; 10^-8 grams 2X): ± (less than 10% infected)
CPE with TCID50 doses of San Carlos virus ([1]; 10^-9 grams 2X): ± (less than 10% infected)
CPE with TCID50 doses of San Carlos virus ([1]; 10^-10 grams 2X): ± (less than 10% infected)
CPE with TCID50 doses of San Carlos virus ([1]; 10^-11 grams 2X): 1+ (25% of cells infected with selected virus)
CPE with TCID50 doses of San Carlos virus ([1]; 10^-12 grams 2X): 1+ (25% of cells infected with selected virus)
CPE with TCID50 doses of San Carlos virus ([1]; 10^-13 grams 2X): 1+ (25% of cells infected with selected virus)
CPE with TCID50 doses of San Carlos virus ([1]; 10^-14 grams 2X): 2+ (50% of cells infected with selected virus)
CPE with TCID50 doses of San Carlos virus ([1]; 10^-15 grams 2X): 2+ (50% of cells infected with selected virus)
anti-viral activity against San Carlos virus ([1]; at various concentrations): exhibit anti-viral activity
CPE with 100 TCID50 doses of Herpes virus ([2]; 10^-6 grams 2X): 3+ (75% of cells infected with selected virus)
CPE with 100 TCID50 doses of Herpes virus ([2]; 10^-7 grams 2X): 3+ (75% of cells infected with selected virus)
CPE with 100 TCID50 doses of Herpes virus ([2]; 10^-8 grams 2X): 2+ (50% of cells infected with selected virus)
CPE with 100 TCID50 doses of Herpes virus ([2]; 10^-9 grams 2X): 2+ (50% of cells infected with selected virus)
CPE with 100 TCID50 doses of Herpes virus ([2]; 10^-10 grams 2X): 2+ (50% of cells infected with selected virus)
CPE with 100 TCID50 doses of Herpes virus ([2]; 10^-11 grams 2X): 2+ (50% of cells infected with selected virus)
CPE with 100 TCID50 doses of Herpes virus ([2]; 10^-12 grams 2X): 1+ (25% of cells infected with selected virus)
CPE with 100 TCID50 doses of Herpes virus ([2]; 10^-13 grams 2X): 2+ (50% of cells infected with selected virus)
CPE with 100 TCID50 doses of Herpes virus ([2]; 10^-14 grams 2X): 3+ (75% of cells infected with selected virus)
CPE with 100 TCID50 doses of Herpes virus ([2]; 10^-15 grams 2X): 1+ (25% of cells infected with selected virus)
CPE with 100 TCID50 doses of Herpes virus ([2]; 10^-16 grams 2X): 4+ (100% of cells infected with selected virus)
CPE with 100 TCID50 doses of Herpes virus ([2]; 10^-17 grams 2X): 4+ (100% of cells infected with selected virus)
CPE with 100 TCID50 doses of Herpes virus ([2]; 10^-18 grams 2X): 2+ (50% of cells infected with selected virus)
CPE of herpes virus ([2]; both the 10^-12 and 10^-15 level): inhibited
Dead animals [3, 6]: 1
Ill animals [3, 6]: 8
Well animals [3, 6]: 12
Total number of rats ([3]; day 14, 1 PPB in drinking water, SH rats, 21 at start): 21
Dead animals [3, 7]: 1
Ill animals [3, 7]: 7
Well animals [3, 7]: 12
Total number of rats ([3]; day 22, 1 PPB in drinking water, SH rats, 21 at start): 20
Dead animals [3, 8]: 2
Ill animals [3, 8]: 4
Well animals [3, 8]: 13
Total number of rats ([3]; day 29, 1 PPB in drinking water, SH rats, 21 at start): 19
Ill animals [3, 9]: 5
Well animals [3, 9]: 12
Total number of rats ([3]; day 36, 1 PPB in drinking water, SH rats, 21 at start): 17
Ill animals [3, 10]: 5
Well animals [3, 10]: 12
Total number of rats ([3]; day 43, 1 PPB in drinking water, SH rats, 21 at start): 17
Well animals ([3]; day 76, 1 PPB in drinking water, SH rats): 12
Total number of rats ([3]; day 76, 1 PPB in drinking water, SH rats, 21 at start): 17
Ill animals ([3]; day 76, 1 PPB in drinking water, SH rats, minimal infection): 5
infection in the five ill rats ([3]; day 76, visual observation, 1 PPB, SH rats): minimal infection from visual observation
rats alive in the treated group ([3]; end of 76 days, 1 PPB in drinking water, SH rats, 21 at start): 17
animals showing a trace of secretions around their necks ([3]; end of 76 days, of 17 rats alive, 1 PPB, SH rats): 5
breeding and colony health ([3]; more than 2 years, 1 PPB in drinking fluid, combined SH groups): These animals began to breed, and the colony is now healthy
new born rats, all appeared healthy ([4]; by day 150, 1 PPB in drinking water, GM rats): 31
breeding of experimental group ([4]; by day 150, 1 PPB, GM rats, control group did not start breeding): began to breed
Ill animals [4, 11]: 3
Well animals [4, 11]: 23
Total number of rats ([4]; day 58, 1 PPB in drinking water, GM rats, 26 at start): 26
Ill animals [4, 12]: 3
Well animals [4, 12]: 23
Total number of rats ([4]; day 66, 1 PPB in drinking water, GM rats, 26 at start): 26
Ill animals [4, 13]: 2
Well animals [4, 13]: 24
Total number of rats ([4]; day 73, 1 PPB in drinking water, GM rats, 26 at start): 26
Dead animals [4, 14]: 1
Ill animals [4, 14]: 0
Well animals [4, 14]: 25
Total number of rats ([4]; day 80, 1 PPB in drinking water, GM rats, 26 at start): 25
Well animals ([4]; day 150, 1 PPB in drinking water, GM rats): 53
Total number of rats ([4]; day 150, 1 PPB in drinking water, GM rats, includes 31 new born): 56
Ill animals ([4]; day 150, 1 PPB in drinking water, GM rats, only a trace of secretion): 3
symptoms of the three rats listed as ill ([4]; day 150, 1 PPB, GM rats): only a trace of secretion
state of colony [4, 15]: the colony has continued to thrive
total number of rats in colony [4, 15]: about 400
CPE with 100 TCID50 doses of San Carlos virus ([5]; 2,4-dimethylphenol 10^-4 grams 2X): 4+ (100% of cells infected with selected virus)
CPE with 100 TCID50 doses of San Carlos virus ([5]; 10^-5 grams 2X): 2+ (50% of cells infected with selected virus)
CPE with 100 TCID50 doses of San Carlos virus ([5]; 10^-6 grams 2X): 2+ (50% of cells infected with selected virus)
CPE with 100 TCID50 doses of San Carlos virus ([5]; 10^-7 grams 2X): 1+ (25% of cells infected with selected virus)
CPE with 100 TCID50 doses of San Carlos virus ([5]; 10^-8 grams 2X): 1+ (25% of cells infected with selected virus)
CPE with 100 TCID50 doses of San Carlos virus ([5]; 10^-9 grams 2X): 1+ (25% of cells infected with selected virus)
CPE with 100 TCID50 doses of San Carlos virus ([5]; 10^-10 grams 2X): 1+ (25% of cells infected with selected virus)
CPE with 100 TCID50 doses of San Carlos virus ([5]; 10^-11 grams 2X): 1+ (25% of cells infected with selected virus)
CPE with 100 TCID50 doses of San Carlos virus ([5]; 10^-12 grams 2X): 2+ (50% of cells infected with selected virus)
CPE with 100 TCID50 doses of San Carlos virus ([5]; 10^-13 grams 2X): 2+ (50% of cells infected with selected virus)
CPE with 100 TCID50 doses of San Carlos virus ([5]; 10^-14 grams 2X): 3+ (75% of cells infected with selected virus)
inhibition of CPE produced by San Carlos virus ([5]; picograms, 10^-10 to 10^-12 per ml of medium): slight but consistent inhibition
